Measured values from patent US20150210741A1, “JAGARICIN DERIVATIVES AND THEIR USE AS FUNGICIDE OR ANTITUMOR AGENT” (Leibniz-Institut Für Naturstoff-Forschung Und …, priority 2012, published 2015).
In brackets after ≈: the same amount, converted by molar mass. Starred links: 1 amine or outer side, 2 acyl side, 3 side chain; linkers in the order of their positions; H or OH if unused. Positions of bridges follow the written chain, without caps; N, C: chain ends. Non-standard residues stand in square brackets, D forms with d. Residues, ends and D or L forms follow the SMILES beside them. *: point of attachment. Tetradecanoyl(3R-OH) = CCCCCCCCCCC[C@@H](O)CC(=O)*; X1 = C/C=C(/N[*:1])C(=O)[*:2]; Dhb = C/C=C(\N)C(=O)O

Legend:
A. fumigatus = assay: Agar diffusion antifungal bioactivity test; format: cell-based; conditions: Aspergillus fumigatus
Experimental: (§1) Janthinobacterium agaricidamnosum (DSM 9628) was retrieved from the German collection of microorganisms (DSM). The bacteria were cultured in nutrient media (605 DSM without NaCl; 1 g/L beef extract, 2 g/L yeast extract, 5 g/L peptone, 15 g/L agar). Plates and liquid cultures (shaken at 150 rpm in baffled flasks) were grown at 22° C. and 28° C., respectively. During screening plates and liquid cultures of modified nutrient agar (additional 4 g/L chitin, 100 g/L mushroom cubes), M9 (6 g/L Na2HPO4, 3 g/L KH2PO4, 0.5 g/L NaCl, 2 g/L NH4Cl, 4 g/L glucose, […], 2 mM MgSO4, 15 g/L agar), MS (20 g/L mannite, 20 g/L soy flour, 20 g/L agar) and modified VK (5 g/L glycine, 10 g/L yeast extract, 10 g/L glucose, 10 g/L corn steep, 10 g/L CaCO3, 15 g/L agar pH 6.7-7.0) media were used. For the production of jagaricin J. agaricidamnosum was grown in modified VK medium. The selection of positive J. agaricidamnosum mutants was carried out on nutrition agar supplemented with 50 μg/mL kanamycin. For the construction of pKG01, Escherichia coli Top 10 cells and E. coli ER2925 cells were used. E. coli was cultured in LB medium (10 g/L tryptone, 5 g/L yeast extract, 5 g/L NaCl, 1 g/L glucose) supplemented with 50 μg/mL kanamycin. Candida albicans, Aspergillus fumigatus and A. terreus were used for the bioactivity tests and they were cultivated on malt agar (C. albicans; 40 g/L malt extract, 4 g/L yeast extract, 15 g/L agar, pH 5.7-6.0) and potato glucose agar (A. fumigatus and A. terreus; 4 g/L potato starch infusion, 20 g/L dextrose, 15 g/L agar) plates, respectively.
(§2) 50 μL of different concentrated jagaricin solutions were each pipetted into a pierced hole (9 mm diameter) within an agar plate that was inoculated with the test strains C. albicans, A. fumigatus and A. terreus, respectively. After incubation at 24° C. over night the inhibition zone was measured. The antiproliferative and cytotoxic assay were performed as previously described (Abdou, R. et al., Phytochemistry, 2009. 71(1): p. 110-6).

A. terreus = assay: Agar diffusion antifungal bioactivity test; format: cell-based; conditions: Aspergillus terreus
Experimental: as §1, §2

C. albicans = assay: Agar diffusion antifungal bioactivity test; format: cell-based; conditions: Candida albicans
Experimental: as §1, §2

[1] = test system: human chronic myeloid leukemia cells K-562; assay: Antiproliferative assay; format: cell-based; conditions: K562, K-562, antiproliferative
Experimental: as §2

[2] = test system: human umbilical vein endothelial cells HUVEC; assay: Antiproliferative assay; format: cell-based
Experimental: as §2

Cytotoxic assay = format: cell-based; conditions: human, HeLa cells (human cervix carcinoma)
Experimental: as §2

bacteria = assay: Antibacterial activity (data not shown); format: cell-based
mushroom tissue = assay: Application of purified jagaricin on mushroom tissue; set-up: species or system Agaricus bisporus; conditions: purified jagaricin applied to mushroom tissue

C/C=C1\NC(=O)[C@@H](Cc2ccc(O)cc2)NC(=O)[C@@H]([C@H](C)O)NC(=O)[C@@H](NC(=O)/C(=C\C)NC(=O)C[C@H](O)CCCCCCCCCCC)[C@@H](C)OC(=O)[C@H](Cc2c[nH]cn2)NC(=O)[C@H]([C@@H](C)O)NC(=O)CNC(=O)[C@@H](CCC(N)=O)NC1=O [jagaricin] ({Tetradecanoyl(3R-OH)}-[X1]T[dT][dY][Dhb][dQ]GTH; ester 2-C)
MIC (A. fumigatus): 0.41 µM (≈ 0.484 µg/mL)
MIC (A. terreus): 0.28 µM (≈ 0.331 µg/mL)
MIC (C. albicans): 0.42 µM (≈ 0.496 µg/mL)
GI50 [1]: 1000 nM
GI50 [2]: 1000 nM
CC50 (Cytotoxic assay): 3800 nM
antibacterial activity (bacteria): little or no antibacterial activity
lesion on mushroom tissue (mushroom tissue): caused a superficial lesion on mushroom tissue
